From patent US12037324B2, “Biarylmethyl heterocycles” (Université de Montréal, priority 2016, dated 2024)
Values belong to the compound of their own block, whether it stands above or below them.

Legend:
[1] = biological target: T1, AGTR1 (Homo sapiens, UniProt P30556); test: DiscoveRx IP1 accumulation assay (HTRF), agonist mode, Pathunter CHO-K1 AGTR1 β-arrestin cell line; assay type: cell-based; settings: for EC50: read-out: IP-1 EC50
T1 construct: host or cells: Pathunter CHO-K1 AGTR1 β-arrestin cell line (CHO-K1)
T1 sequence (P30556 1-359): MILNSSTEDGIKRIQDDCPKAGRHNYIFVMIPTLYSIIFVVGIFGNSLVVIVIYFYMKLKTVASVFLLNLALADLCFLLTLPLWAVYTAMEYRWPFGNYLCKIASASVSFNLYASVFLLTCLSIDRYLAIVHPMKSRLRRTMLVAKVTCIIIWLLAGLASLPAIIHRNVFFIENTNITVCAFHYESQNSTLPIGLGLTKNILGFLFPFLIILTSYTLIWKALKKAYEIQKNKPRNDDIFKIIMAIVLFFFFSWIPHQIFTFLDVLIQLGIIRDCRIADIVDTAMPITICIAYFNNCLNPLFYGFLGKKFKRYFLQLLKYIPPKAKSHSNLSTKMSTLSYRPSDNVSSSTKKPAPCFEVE
Procedure, shortened: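 Agonist mode in CHO-K1 AGTR1 β-arrestin cells plated 14-16 h before; compounds at varying concentrations for 90 min at 37° C, IP1 accumulation read by HTRF (D2-conjugate and anti-IP1 cryptate, 20 min room temperature). EC50 from 4-parameter logistic fit; activity given as percentage of maximal AII effect.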

[2] = biological target: T2, hAT1R (Homo sapiens, UniProt P30556); test: cell-based
T2 sequence (P30556 1-359): T1 sequence (P30556 1-359)

[3] = biological target: T2, hAT1R; test: cell-based; settings: agonist mode; for EC50: read-out: BRET P63 EC50
[4] = biological target: T1, AGTR1; test: DiscoveRx β-arrestin2 recruitment assay (enzyme complementation, Pathunter CHO-K1 AGTR1 β-arrestin cell line); assay type: cell-based; settings: DiscoveRx β-arrestin2 recruitment; for DiscoveRx β-arrestin2 Ymax (%): maximal response
Procedure, shortened: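 Chemiluminescent enzyme-complementation read-out of β-arrestin2 recruitment to AGTR1 in engineered CHO-K1 cells after 90 min compound exposure at 37° C. Values are 4-parameter logistic EC50s in agonist mode, IC50s in antagonist mode, with efficacy relative to the maximal All response.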

[5] = biological target: T2, hAT1R; test: BRET β-arrestin2 biosensor assay, higher receptor expression (hAT1R 5 ng/well), HEK293 cells; assay type: cell-based; settings: for EC50: High AT1R Expression
[6] = Low AT1R Expression, read-out: BRET β-Arrestin2 Low AT1R Expression EC50
[7] = section of the 42nd table ending at r951, example numbering restarts after the DiscoveRx section, read-out: β-arrestin2 EC50

Structure (SMILES): CCc1nc2c(C)cc(C)nc2n1Cc1ccc(-c2cc(C3CCCCO3)ccc2-c2nn[nH]n2)cc1 (single isomer, unassigned) [Example 78, 2-ethyl-5,7-dimethyl-3-((5′-(tetrahydro-2H-pyran-2-yl)-2′-(2H-tetrazol-5-yl)-[1,1′-biphenyl]-4-yl)methyl)-3H-imidazo[4,5-b]pyridine]
IP-1 Ymax (%) [1]: 37.8%
EC50 [1]: 79.5 nM
BRET β-Arrestin2 Low AT1R Expression Ymax (%) ([2]; Low AT1R Expression): 85.0%
EC50 [2, 6]: 37.5 nM
BRET P63 Ymax [3]: 36.1%
EC50 [3]: 72.3 nM
EC50 [4]: 19.9 nM
DiscoveRx β-arrestin2 Ymax (%) [4]: 50.0%
BRET β-Arrestin2 High AT1R Expression Ymax (%) [5]: 94.3%
EC50 [5]: 15 nM

Structure (SMILES): CCCCC1=NC2(CCOC2)C(=O)N1Cc1ccc(-c2cc(-c3ccccc3)ccc2-c2nnn[nH]2)cc1 (single isomer, unassigned) [Example 146]
IP-1 Ymax (%) [1]: 8.3%
EC50 [1]: 76.2 nM
BRET β-Arrestin2 Low AT1R Expression Ymax (%) ([2]; Low AT1R Expression): 35.0%
EC50 [2, 6]: 52.6 nM
EC50 [3]: > 100000 nM
EC50 [4]: 31.6 nM
DiscoveRx β-arrestin2 Ymax (%) [4]: 34.0%
BRET β-Arrestin2 High AT1R Expression Ymax (%) [5]: 85.6%
EC50 [5]: 38.2 nM

Structure (SMILES): CCCCC1=NC2(CCOC2)C(=O)N1Cc1ccc(-c2cc(-c3ccccc3)ccc2-c2nnn[nH]2)cc1 (single isomer, unassigned) [Example 147, 3-((6′-(1H-tetrazol-5-yl)-[1,1′:3′,1″-terphenyl]-4-yl)methyl)-2-butyl-7-oxa-1,3-diazaspiro[4.4]non-1-en-4-one]
IP-1 Ymax (%) [1]: 3.6%
EC50 [1]: 178 nM
BRET β-Arrestin2 Low AT1R Expression Ymax (%) ([2]; Low AT1R Expression): 26.1%
EC50 [2, 6]: 109 nM
EC50 [3]: > 100000 nM
EC50 [4]: 107 nM
DiscoveRx β-arrestin2 Ymax (%) [4]: 23.0%
BRET β-Arrestin2 High AT1R Expression Ymax (%) [5]: 66.6%
EC50 [5]: 126 nM

Structure (SMILES): CCc1nc2c(C)cc(C)nc2n1Cc1ccc(-c2cc(-c3ccccc3C)ccc2-c2nn[nH]n2)cc1 [Example 2]
IP-1 Ymax (%) [1]: 13.1%
EC50 [1]: 71.8 nM
BRET β-Arrestin2 Low AT1R Expression Ymax (%) ([2]; Low AT1R Expression): 15.2%
EC50 [2, 6]: 11 nM
BRET P63 Ymax [3]: 2.7%
EC50 [3]: 22 nM
EC50 [4]: 19.8 nM
DiscoveRx β-arrestin2 Ymax (%) [4]: 21.8%
BRET β-Arrestin2 High AT1R Expression Ymax (%) [5]: 74.2%
EC50 [5]: 11.3 nM

Structure (SMILES): CCc1nc2c(C)cc(C)nc2n1Cc1ccc(-c2cc(-c3ccccc3)ccc2-c2nn[nH]n2)cc1 [Example 4]
IP-1 Ymax (%) [1]: 9.8%
EC50 [1]: 19 nM
BRET β-Arrestin2 Low AT1R Expression Ymax (%) ([2]; Low AT1R Expression): 69.3%
EC50 [2, 6]: 8.2 nM
BRET P63 Ymax [3]: 13.0%
EC50 [3]: 4.8 nM
EC50 [4]: 7.5 nM
DiscoveRx β-arrestin2 Ymax (%) [4]: 48.9%
BRET β-Arrestin2 High AT1R Expression Ymax (%) [5]: 95.4%
EC50 [5]: 3.8 nM

Structure (SMILES): CCc1nc2c(C)cc(C)nc2n1Cc1ccc(-c2cc(-c3cccc(C)c3)ccc2-c2nn[nH]n2)cc1 [Example 8]
IP-1 Ymax (%) [1]: 6.9%
EC50 [1]: 6 nM
BRET β-Arrestin2 Low AT1R Expression Ymax (%) ([2]; Low AT1R Expression): 80.5%
EC50 [2, 6]: 5.4 nM
BRET P63 Ymax [3]: 14.0%
EC50 [3]: 7.7 nM
EC50 [4]: 6 nM
DiscoveRx β-arrestin2 Ymax (%) [4]: 42.2%
BRET β-Arrestin2 High AT1R Expression Ymax (%) [5]: 93.0%
EC50 [5]: 4.1 nM

Structure (SMILES): CCc1nc2c(C)cc(C)nc2n1Cc1ccc(-c2cc(-c3cc(C)cc(C)c3)ccc2-c2nn[nH]n2)cc1 [Example 9]
IP-1 Ymax (%) [1]: 7.1%
EC50 [1]: 8.7 nM
BRET β-Arrestin2 Low AT1R Expression Ymax (%) ([2]; Low AT1R Expression): 80.3%
EC50 [2, 6]: 9.4 nM
BRET P63 Ymax [3]: 14.2%
EC50 [3]: 19.5 nM
EC50 [4]: 3.7 nM
DiscoveRx β-arrestin2 Ymax (%) [4]: 66.7%
BRET β-Arrestin2 High AT1R Expression Ymax (%) [5]: 87.8%
EC50 [5]: 5.6 nM

Structure (SMILES): CCc1nc2c(C)cc(C)nc2n1Cc1ccc(-c2cc(-c3ccccc3O)ccc2-c2nn[nH]n2)cc1 [Example 10]
IP-1 Ymax (%) [1]: 14.4%
EC50 [1]: 5 nM
BRET β-Arrestin2 Low AT1R Expression Ymax (%) ([2]; Low AT1R Expression): 86.8%
EC50 [2, 6]: 2.4 nM
BRET P63 Ymax [3]: 26.1%
EC50 [3]: 2.8 nM
EC50 [4]: 1.4 nM
DiscoveRx β-arrestin2 Ymax (%) [4]: 60.3%
BRET β-Arrestin2 High AT1R Expression Ymax (%) [5]: 86.9%
EC50 [5]: 1.4 nM

IP-1 Ymax (%) [1]: 7.5%
EC50 [1]: 60 nM
EC50 [2, 7]: 101 nM
EC50 [3]: > 100000 nM
EC50 [4]: 16.9 nM
DiscoveRx β-arrestin2 Ymax (%) [4]: 41.5%
Structure (SMILES): CCc1nc2c(C)cc(C)nc2n1Cc1ccc(-c2cc(-n3cc(C)nn3)ccc2-c2nnn[nH]2)cc1 [Example 232]

Structure (SMILES): CCc1nc2c(C)cc(C)nc2n1Cc1ccc(-c2cc(-n3nnc4ccccc43)ccc2-c2nnn[nH]2)cc1 [Example 233, 1-(4′-((2-Ethyl-5,7-dimethyl-3H-imidazo[4,5-b]pyridin-3-yl)methyl)-6-(1H-tetrazol-5-yl)-[1,1′-biphenyl]-3-yl)-1H-benzo[d][1,2,3]triazole]
IP-1 Ymax (%) [1]: 10.2%
EC50 [1]: 31.3 nM
EC50 [2, 7]: 9.7 nM
BRET P63 Ymax [3]: 17.9%
EC50 [3]: 13.2 nM
EC50 [4]: 10.5 nM
DiscoveRx β-arrestin2 Ymax (%) [4]: 59.2%

Structure (SMILES): CCc1nc2c(C)cc(C)nc2n1Cc1ccc(-c2cc(-c3cn(CCF)nn3)ccc2-c2nnn[nH]2)cc1 [Example 239]
IP-1 Ymax (%) [1]: 34.2%
EC50 [1]: 30.7 nM
EC50 [2, 7]: 9 nM
BRET P63 Ymax [3]: 44.3%
EC50 [3]: 16.7 nM
EC50 [4]: 5.4 nM
DiscoveRx β-arrestin2 Ymax (%) [4]: 59.1%

Structure (SMILES): CCc1nc2c(C)cc(C)nc2n1Cc1ccc(-c2cc(-c3cn(CC(C)C)nn3)ccc2-c2nnn[nH]2)cc1 [Example 240]
IP-1 Ymax (%) [1]: 14.1%
EC50 [1]: 122 nM
EC50 [2, 7]: 345 nM
BRET P63 Ymax [3]: 9.5%
EC50 [3]: 60.1 nM
EC50 [4]: 48.6 nM
DiscoveRx β-arrestin2 Ymax (%) [4]: 42.0%

Structure (SMILES): CCCCn1cc(-c2ccc(-c3nnn[nH]3)c(-c3ccc(Cn4c(CC)nc5c(C)cc(C)nc54)cc3)c2)nn1 [Example 241]
IP-1 Ymax (%) [1]: 12.8%
EC50 [1]: 150 nM
EC50 [2, 7]: 50.2 nM
BRET P63 Ymax [3]: 17.5%
EC50 [3]: 40.5 nM
EC50 [4]: 41.5 nM
DiscoveRx β-arrestin2 Ymax (%) [4]: 44.3%

Structure (SMILES): CCc1nc2c(C)cc(C)nc2n1Cc1ccc(-c2cc(-c3cn(C)nn3)ccc2-c2nnn[nH]2)cc1 [Example 243, 2-Ethyl-5,7-dimethyl-3-((5′-(1-methyl-1H-1,2,3-triazol-4-yl)-2′-(1H-tetrazol-5-yl)-[1,1′-biphenyl]-4-yl)methyl)-3H-imidazo[4,5-b]pyridine]
IP-1 Ymax (%) [1]: 14.7%
EC50 [1]: 52 nM
EC50 [2, 7]: 71.5 nM
BRET P63 Ymax [3]: 15.2%
EC50 [3]: 42.1 nM
EC50 [4]: 22.4 nM
DiscoveRx β-arrestin2 Ymax (%) [4]: 37.7%

Structure (SMILES): CCc1nc2c(C)cc(C)nc2n1Cc1ccc(-c2cc(-c3ccccc3)ccc2C(=O)NS(C)(=O)=O)cc1 [Example 244]
IP-1 Ymax (%) [1]: 11.0%
EC50 [1]: 201 nM
EC50 [2, 7]: 111 nM
BRET P63 Ymax [3]: 15.3%
EC50 [3]: 69.6 nM
EC50 [4]: 96.5 nM
DiscoveRx β-arrestin2 Ymax (%) [4]: 34.7%

Structure (SMILES): CCc1nc2c(C)cc(C)nc2n1Cc1ccc(-c2cc(-c3ccccc3)ccc2-c2n[nH]c(=S)o2)cc1 [Example 246, 5-(4″-((2-Ethyl-5,7-dimethyl-3H-imidazo[4,5-b]pyridin-3-yl)methyl)-[1,1′:3′,1″-terphenyl]-4′-yl)-1,3,4-oxadiazole-2(3H)-thione]
IP-1 Ymax (%) [1]: 4.8%
EC50 [1]: 281 nM
EC50 [2, 7]: 916 nM
BRET P63 Ymax [3]: 10.1%
EC50 [3]: 82.6 nM
EC50 [4]: 234 nM
DiscoveRx β-arrestin2 Ymax (%) [4]: 38.3%

Structure (SMILES): CCc1nc2c(C)cc(C)nc2n1Cc1ccc(-c2cc(Oc3cccnc3F)ccc2-c2nn[nH]n2)cc1 [Example 262]
IP-1 Ymax (%) [1]: 8.6%
EC50 [1]: 37.9 nM
EC50 [2, 7]: 14.3 nM
BRET P63 Ymax [3]: 14.4%
EC50 [3]: 11.2 nM
EC50 [4]: 19.9 nM
DiscoveRx β-arrestin2 Ymax (%) [4]: 50.8%
